Assay results published in the supplement of paper PMC10307832.

What was measured:
Test in all cases: relative viability (nuclei count vs DMSO), 5 days (fraction); higher = more cells survive
A-427 = tested on: A-427
Procedure, shortened: (§1)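 Lung cancer cell lines in 1536-well plates were dosed by pin tool the day after seeding, either with one drug alone or with a fixed anchor-drug dose plus five library-drug doses (not always all listed) in √10 steps. After 5 days, cells were fixed and their nuclei stained in one step (final 0.05% Triton X-100, 1% formaldehyde, 1 ug/ml Hoechst), then counted on 4× images. Relative viability is the nuclei count in treated wells divided by that in vehicle wells. Values are medians of duplicate plates.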

NCI-H650 = tested on: NCI-H650
Procedure, shortened: as §1

NCI-H2228 = tested on: NCI-H2228
Procedure, shortened: as §1

NCI-H1993 = tested on: NCI-H1993
Procedure, shortened: as §1

NCI-H1915 = tested on: NCI-H1915
Procedure, shortened: as §1

NCI-H1793 = tested on: NCI-H1793
Procedure, shortened: as §1

NCI-H520 = tested on: NCI-H520
Procedure, shortened: as §1

NCI-H1666 = tested on: NCI-H1666
Procedure, shortened: as §1

NCI-H838 = tested on: NCI-H838
Procedure, shortened: as §1

EKVX = tested on: EKVX
Procedure, shortened: as §1

NCI-H23 = tested on: NCI-H23
Procedure, shortened: as §1

NCI-H1648 = tested on: NCI-H1648
Procedure, shortened: as §1

LOU-NH91 = tested on: LOU-NH91
Procedure, shortened: as §1

NCI-H460 = tested on: NCI-H460
Procedure, shortened: as §1

RERF-LC-KJ = tested on: RERF-LC-KJ
Procedure, shortened: as §1

SW 1573 = tested on: SW 1573
Procedure, shortened: as §1

LC-2-ad = tested on: LC-2-ad
Procedure, shortened: as §1

LU99A = tested on: LU99A
Procedure, shortened: as §1

LCLC-97TM1 = tested on: LCLC-97TM1
Procedure, shortened: as §1

NCI-H1650 = tested on: NCI-H1650
Procedure, shortened: as §1

NCI-H1355 = tested on: NCI-H1355
Procedure, shortened: as §1

PC-3 [JPC-3] = tested on: PC-3 [JPC-3]
Procedure, shortened: as §1

NCI-H2347 = tested on: NCI-H2347
Procedure, shortened: as §1

BEN = tested on: BEN
Procedure, shortened: as §1

In the case of `CCCCCCCCCCCC1=C(O)C(=O)C=C(O)C1=O` [Embelin] + CC(=O)Nc1cccc(-n2c(=O)n(C3CC3)c(=O)c3c(Nc4ccc(I)cc4F)n(C)c(=O)c(C)c32)c1 [Trametinib] (partner 0.02 µM), the relative viability (A-427; first compound 0.08 µM) was 0.732, the relative viability (A-427; first compound 0.8 µM) was 0.785 and the relative viability (A-427; first compound 2.53 µM) was 0.7. It also gave a relative viability (A-427; first compound 8 µM) of 0.624, a relative viability (NCI-H650; first compound 0.08 µM) of 0.977 and a relative viability (NCI-H650; first compound 0.8 µM) of 1.47. It also gave a relative viability (NCI-H650; first compound 2.53 µM) of 1.02, a relative viability (NCI-H650; first compound 8 µM) of 0.987 and a relative viability (NCI-H2228; first compound 0.08 µM) of 0.491. For the same compound, the relative viability (NCI-H2228; first compound 0.8 µM) was 0.523, the relative viability (NCI-H2228; first compound 2.53 µM) was 0.609 and the relative viability (NCI-H2228; first compound 8 µM) was 0.455. The relative viability (NCI-H1993; first compound 0.08 µM) was 0.513, the relative viability (NCI-H1993; first compound 0.8 µM) was 0.512 and the relative viability (NCI-H1993; first compound 2.53 µM) was 0.584. The relative viability (NCI-H1993; first compound 8 µM) was 0.498, the relative viability (NCI-H1915; first compound 0.08 µM) was 0.319 and the relative viability (NCI-H1915; first compound 0.8 µM) was 0.33. It also gave a relative viability (NCI-H1915; first compound 2.53 µM) of 0.263, a relative viability (NCI-H1915; first compound 8 µM) of 0.295 and a relative viability (NCI-H1793; first compound 0.08 µM) of 0.398. The relative viability (NCI-H1793; first compound 0.8 µM) was 0.446, the relative viability (NCI-H1793; first compound 2.53 µM) was 0.511 and the relative viability (NCI-H1793; first compound 8 µM) was 0.419. The relative viability (NCI-H520; first compound 0.08 µM) was 0.689, the relative viability (NCI-H520; first compound 0.8 µM) was 0.72 and the relative viability (NCI-H520; first compound 2.53 µM) was 0.95. The relative viability (NCI-H520; first compound 8 µM) was 0.705, the relative viability (NCI-H1666; first compound 0.08 µM) was 0.813 and the relative viability (NCI-H1666; first compound 0.8 µM) was 0.824. For the same compound, the relative viability (NCI-H1666; first compound 2.53 µM) was 0.838, the relative viability (NCI-H1666; first compound 8 µM) was 0.91 and the relative viability (NCI-H838; first compound 0.08 µM) was 0.523. It also gave a relative viability (NCI-H838; first compound 0.8 µM) of 0.705, a relative viability (NCI-H838; first compound 2.53 µM) of 0.571 and a relative viability (NCI-H838; first compound 8 µM) of 0.511. The relative viability (EKVX; first compound 0.08 µM) was 0.328, the relative viability (EKVX; first compound 0.8 µM) was 0.472 and the relative viability (EKVX; first compound 2.53 µM) was 0.275. It also gave a relative viability (EKVX; first compound 8 µM) of 0.429, a relative viability (NCI-H23; first compound 0.08 µM) of 0.344 and a relative viability (NCI-H23; first compound 0.8 µM) of 0.476. For the same compound, the relative viability (NCI-H23; first compound 2.53 µM) was 0.437, the relative viability (NCI-H23; first compound 8 µM) was 0.396 and the relative viability (NCI-H1648; first compound 0.08 µM) was 0.53. For the same compound, the relative viability (NCI-H1648; first compound 0.8 µM) was 0.572, the relative viability (NCI-H1648; first compound 2.53 µM) was 0.524 and the relative viability (NCI-H1648; first compound 8 µM) was 0.596. For the same compound, the relative viability (LOU-NH91; first compound 0.08 µM) was 0.785, the relative viability (LOU-NH91; first compound 0.8 µM) was 0.831 and the relative viability (LOU-NH91; first compound 2.53 µM) was 0.828. For the same compound, the relative viability (LOU-NH91; first compound 8 µM) was 0.805, the relative viability (NCI-H460; first compound 0.08 µM) was 0.173 and the relative viability (NCI-H460; first compound 0.8 µM) was 0.202. For the same compound, the relative viability (NCI-H460; first compound 2.53 µM) was 0.151, the relative viability (NCI-H460; first compound 8 µM) was 0.112 and the relative viability (RERF-LC-KJ; first compound 0.08 µM) was 0.871. The relative viability (RERF-LC-KJ; first compound 0.8 µM) was 0.977, the relative viability (RERF-LC-KJ; first compound 2.53 µM) was 0.896 and the relative viability (RERF-LC-KJ; first compound 8 µM) was 0.853. It also gave a relative viability (SW 1573; first compound 0.08 µM) of 0.604, a relative viability (SW 1573; first compound 0.8 µM) of 0.636 and a relative viability (SW 1573; first compound 2.53 µM) of 0.625. It also gave a relative viability (SW 1573; first compound 8 µM) of 0.603, a relative viability (LC-2-ad; first compound 0.08 µM) of 0.891 and a relative viability (LC-2-ad; first compound 0.8 µM) of 0.98. The relative viability (LC-2-ad; first compound 2.53 µM) was 0.966, the relative viability (LC-2-ad; first compound 8 µM) was 1.02 and the relative viability (LU99A; first compound 0.08 µM) was 0.631. For the same compound, the relative viability (LU99A; first compound 0.8 µM) was 0.596, the relative viability (LU99A; first compound 2.53 µM) was 0.561 and the relative viability (LU99A; first compound 8 µM) was 0.526. It also gave a relative viability (LCLC-97TM1; first compound 0.08 µM) of 0.201, a relative viability (LCLC-97TM1; first compound 0.8 µM) of 0.18 and a relative viability (LCLC-97TM1; first compound 2.53 µM) of 0.232. For the same compound, the relative viability (LCLC-97TM1; first compound 8 µM) was 0.184, the relative viability (NCI-H1650; first compound 0.08 µM) was 0.713 and the relative viability (NCI-H1650; first compound 0.8 µM) was 0.703. The relative viability (NCI-H1650; first compound 2.53 µM) was 0.675, the relative viability (NCI-H1650; first compound 8 µM) was 0.703 and the relative viability (NCI-H1355; first compound 0.08 µM) was 0.409. For the same compound, the relative viability (NCI-H1355; first compound 0.8 µM) was 0.443, the relative viability (NCI-H1355; first compound 2.53 µM) was 0.392 and the relative viability (NCI-H1355; first compound 8 µM) was 0.418. It also gave a relative viability (PC-3 [JPC-3]; first compound 0.08 µM) of 0.684, a relative viability (PC-3 [JPC-3]; first compound 0.8 µM) of 0.75 and a relative viability (PC-3 [JPC-3]; first compound 2.53 µM) of 0.788. The relative viability (PC-3 [JPC-3]; first compound 8 µM) was 0.614, the relative viability (NCI-H2347; first compound 0.08 µM) was 0.307 and the relative viability (NCI-H2347; first compound 0.8 µM) was 0.272. The relative viability (NCI-H2347; first compound 2.53 µM) was 0.255, the relative viability (NCI-H2347; first compound 8 µM) was 0.316 and the relative viability (BEN; first compound 0.08 µM) was 1.11. The relative viability (BEN; first compound 0.8 µM) was 1.16, the relative viability (BEN; first compound 2.53 µM) was 0.966 and the relative viability (BEN; first compound 8 µM) was 0.865.
